# Reference: patent publication US20250360111A1, “COMPOSITIONS OF AGPAT4 INHIBITORS AND METHODS OF USING THEREOF TO TREAT CANCER” (The University of Hong Kong, priority 2024, published 2025)
# Residue numbers refer to the chain shown, from its start.
# Tests used:
# [1] = Animal toxicity studies; format: in vivo, C57BL/6 mice; conditions: 1 mg/kg or 10 mg/kg intraperitoneally
# Protocol: C57BL/6 mice were administered CL26 at a low dose (1 mg/kg) or high dose (10 mg/kg) intraperitoneally to evaluate potential tissue damage associated with CL26 exposure. Major organs, including the liver, spleen, pancreas, kidney, heart, and lungs, were weighed prior to fixation in 10% formalin for subsequent paraffin embedding and H& E staining. Additionally, the serum concentrations of alanine aminotransferase (ALT) and aspartate aminotransferase (AST) were measured. The above analysis was performed at the Veterinary Diagnostic Laboratory of the City University of Hong Kong.
# [2] = molecular target: T1, acyltransferase activity of AGPAT4 (Homo sapiens, UniProt Q9NRZ5, C228A); assay: LPA to PA conversion assay; format: biochemical; conditions: Huh7 cells, AGPAT4 C228A mutant
# T1 construct: The open reading frame (ORF) encoding the mRNA of AGPAT4 was cloned into the pDONR-221 donor vector; expressed in transfected cells; host or cells: Huh7 (lentiviral pEZ-Lv199-AGPAT4)
# T1 sequence (Q9NRZ5 1-378 C228A): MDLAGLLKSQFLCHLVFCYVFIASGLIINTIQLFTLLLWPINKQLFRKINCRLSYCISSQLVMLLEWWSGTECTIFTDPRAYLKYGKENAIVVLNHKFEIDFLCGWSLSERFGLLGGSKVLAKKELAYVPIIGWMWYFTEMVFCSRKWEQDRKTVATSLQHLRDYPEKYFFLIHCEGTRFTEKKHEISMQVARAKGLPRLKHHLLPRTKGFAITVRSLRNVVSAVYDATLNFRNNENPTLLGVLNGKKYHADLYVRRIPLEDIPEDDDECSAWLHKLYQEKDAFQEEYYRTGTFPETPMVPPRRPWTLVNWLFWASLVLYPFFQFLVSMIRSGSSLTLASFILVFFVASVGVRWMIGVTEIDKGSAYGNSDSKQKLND
# Protocol: Enzyme activity was measured by quantifying the conversion of [3H]-LPA to [3H]-PA following the protocol outlined in a previous study (43). Briefly, the enzymatic reaction was prepared by combining 10 μmol/L 18:1 Lyso PA (Avanti Polar Lipids), 50 μmol/L oleoyl CoA (Sigma-Aldrich), 1 μL 1-oleoyl-[oleoyl-9,10^−3H]-LPA (specific activity 30-60 Ci/mmol; PerkinElmer), and 1 mg/mL fatty acid-free BSA in 200 μL 100 mM Tris-HCl buffer at pH 7.4. The reaction was initiated by adding 30 μg of total protein (cell lysate) and incubating the mixture at 37° C. for 10 min. To stop the reaction, 0.5 mL of 1-butanol containing 1 M HCl was added to extract phospholipids to stop the reaction. The butanol extract was then dried under vacuum, and the LPA and PA were separated using a solvent system consisting of chloroform, methanol, acetic acid, and water (25:10:3:1). Radioactive spots were identified by comparing their migration with unlabelled LPA and PA standards and visualized using iodine vapours. The spots corresponding to [3H]-LPA and [3H]-PA were scraped and their radioactivity was measured using a Tri-Carb Liquid Scintillation Counter 4810 (PerkinElmer Life Sciences).
# [3] = molecular target: T2, AGPAT4 (Homo sapiens, UniProt Q9NRZ5); assay: Competitive gel-based ABPP in live cells with CL26-alkyne probe; format: cell-based; conditions: Huh7 cells stably expressing FLAG-AGPAT4
# T2 construct: The open reading frame (ORF) encoding the mRNA of AGPAT4 was cloned into the pDONR-221 donor vector; expressed in transfected cells; host or cells: Huh7
# T2 sequence (Q9NRZ5 1-378): T1 sequence (Q9NRZ5 1-378 C228A) with A228C
# Protocol: (§1) An in-gel fluorescence assay was performed to investigate the protein targets of CL26. Huh7 cells overexpressing AGPAT4 or cysteine mutants were pre-treated with CL26 at the indicated concentrations for 2 h, followed by CL26-alkyne (1 μM) treatment for another 2 h. Cells were harvested in RIPA buffer supplemented with protease and phosphatase inhibitors (Thermo Fisher Scientific #A32961). The proteins were precipitated by incubation with 6× volume of pre-chilled acetone at −20° C. overnight. Proteins were pelleted by centrifugation at 5000 g for 10 min and resuspended in PBS. The protein content was measured using the BCA assay and normalized to 2 mg/mL. Cell lysates (50 μL) were labelled with azide-fluor 545 by click reaction (final reaction mixture: azide-fluor 545 (25 μM), copper(II) sulfate (1 mM), TBTA (100 μM), and freshly prepared TCEP (1 mM)) at room temperature with constant agitation. After incubation for 1 h, the reaction was quenched with the sampling buffer and boiled at 90° C. for 5 min. Samples were subjected to SDS-PAGE, in-gel fluorescence was captured using ChemiDoc MP (Bio-Rad), and Coomassie Blue staining was performed. Similarly, immunoblotting was used to investigate the protein targets of CL26. Huh7 cells stably transfected with FLAG-AGPAT4 were pre-treated with either the solvent control or CL26 at the indicated concentrations for 2 h, followed by CL26-alkyne (10 μM) treatment for another 2 h. Cells were harvested, and lysates were prepared as described above unless specified. Anti-FLAG M 2 affinity beads were added in FLAG-tag pull-down experiments. After 4 h of incubation at 4° C., the beads were washed with TBS-T and resuspended in TBS-T. Sampling buffer was added and the samples were boiled for protein elution. The samples were subjected to SDS-PAG E and imaged for fluorescence signals before western blot analysis. In the probe pull-down experiment, 1 mL of lysate was labelled with desthiobiotin (DTB)-azide by a click reaction (final reaction mixture: copper(II) sulfate (1 mM), TBTA (100 μM), DTB-PEG-azide (100 μM), and freshly prepared TCEP (1 mM)). […]
# [4] = test system: AGPAT4; assay: as above; format: cell-based, human; conditions: Huh7 cells, empty vector vs FLAG-AGPAT4; silver staining of enriched proteins
# Protocol: as §1
compound,measurement,setting,value
"O=C(CCl)NCc1ccc(-c2nc3ccccc3s2)o1 [CL26, N-[[5-(2-benzothiazolyl)-2-furanyl]methyl]-2-chloroacetamide]","blood chemistry (AST, ALT), major organ weight and histology vs control mice",[1],no significant differences
same,toxicity associated with treatment,[1],minimal toxicity
same,LPA to PA conversion vs DMSO control,[2],did not show difference in LPA to PA conversion
same,in-gel fluorescence of CL26-alkyne-bound AGPAT4 upon CL26 pre-treatment (target engagement),[3],significant decrease in fluorescence intensity
same,off-target binding,[4],minimal off-target binding
